Measured values published in the supplement of paper PMC10307832.

Legend:
Experiment in all cases: relative viability (nuclei count vs DMSO), 5 days (fraction); higher = more cells survive
CUDC-101 + Bortezomib = compound: C#Cc1cccc(Nc2ncnc3cc(OC)c(OCCCCCCC(=O)NO)cc23)c1 [CUDC-101] + CC(C)C[C@H](NC(=O)[C@H](Cc1ccccc1)NC(=O)c1cnccn1)B(O)O [Bortezomib] (partner 0.002 µM)
Procedure, shortened: (§1)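 Lung cancer cell lines, seeded in 1536-well plates, were treated the following day by pin tool with a single drug or with five library-drug doses (not always all listed) in √10 steps on top of a fixed anchor-drug dose. Cells were fixed and nuclei stained in one step after 5 days, and nuclei were counted. Relative viability is the nuclei count for treated wells divided by that for vehicle wells, reported as medians of duplicate plates.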

Vandetanib + Navitoclax = compound: COc1cc2/c(=N/c3ccc(Br)cc3F)nc[nH]c2cc1OCC1CCN(C)CC1 [Vandetanib] + CC1(C)CCC(c2ccc(Cl)cc2)=C(CN2CCN(c3ccc(C(=O)NS(=O)(=O)c4ccc(N[C@H](CCN5CCOCC5)CSc5ccccc5)c(S(=O)(=O)C(F)(F)F)c4)cc3)CC2)C1 [Navitoclax] (partner 0.5 µM)
Procedure, shortened: as §1

Vandetanib + Palbociclib = compound: COc1cc2/c(=N/c3ccc(Br)cc3F)nc[nH]c2cc1OCC1CCN(C)CC1 [Vandetanib] + CC(=O)c1c(C)c2cnc(Nc3ccc(N4CCNCC4)cn3)nc2n(C2CCCC2)c1=O [Palbociclib] (partner 0.5 µM)
Procedure, shortened: as §1

[1] = compound: C1=CC=C2C(=C1)N=C(S2)C(C#N)C3=NC(=NC=C3)NCCC4=CN=CC=C4 + CC(C)C[C@H](NC(=O)[C@H](Cc1ccccc1)NC(=O)c1cnccn1)B(O)O [Bortezomib] (partner 0.002 µM)
Procedure, shortened: as §1

Cell Line | relative viability (CUDC-101 + Bortezomib; first compound 0.01 µM) | relative viability (CUDC-101 + Bortezomib; first compound 0.03162 µM) | relative viability (CUDC-101 + Bortezomib; first compound 0.1 µM) | relative viability (CUDC-101 + Bortezomib; first compound 0.3162 µM) | relative viability (CUDC-101 + Bortezomib; first compound 1 µM) | relative viability (Vandetanib + Navitoclax; first compound 0.02 µM) | relative viability (Vandetanib + Navitoclax; first compound 0.06325 µM) | relative viability (Vandetanib + Navitoclax; first compound 0.2 µM) | relative viability (Vandetanib + Navitoclax; first compound 0.6325 µM) | relative viability (Vandetanib + Navitoclax; first compound 2 µM) | relative viability (Vandetanib + Palbociclib; first compound 0.02 µM) | relative viability (Vandetanib + Palbociclib; first compound 0.06325 µM) | relative viability (Vandetanib + Palbociclib; first compound 0.2 µM) | relative viability (Vandetanib + Palbociclib; first compound 0.6325 µM) | relative viability (Vandetanib + Palbociclib; first compound 2 µM) | relative viability ([1]; first compound 0.005 µM) | relative viability ([1]; first compound 0.01581 µM) | relative viability ([1]; first compound 0.05 µM) | relative viability ([1]; first compound 0.1581 µM) | relative viability ([1]; first compound 0.5 µM)
NCI-H1651 | 1.04 | 0.946 | 0.957 | 0.912 | 0.921 | 0.927 | 1.11 | 1.08 | 1.07 | 0.928 | 0.484 | 0.501 | 0.515 | 0.515 | 0.446 | 0.636 | 0.924 | 0.935 | 1.05 | 0.957
NCI-H2126 | 1.12 | 1.14 | 1.1 | 1.08 | 1.01 | 0.865 | 0.859 | 0.84 | 0.866 | 0.727 | 0.338 | 0.348 | 0.328 | 0.356 | 0.35 | 1.07 | 1.15 | 1.06 | 1.16 | 1.11
EKVX | 0.956 | 1.08 | 1.04 | 0.994 | 0.729 | 0.934 | 0.869 | 0.882 | 0.753 | 0.806 | 0.415 | 0.396 | 0.345 | 0.291 | 0.176 | 0.94 | 1.13 | 1.1 | 1.31 | 0.996
NCI-H1650 | 0.179 | 0.216 | 0.202 | 0.194 | 0.163 | 1.15 | 1.02 | – | 1.1 | 1.13 | 0.34 | 0.291 | 0.289 | 0.318 | 0.244 | 0.26 | 0.204 | 0.19 | 0.21 | 0.206
NCI-H727 | 0.823 | 0.967 | 0.775 | 0.993 | 0.397 | 0.45 | 0.468 | 0.528 | 0.449 | 0.287 | 0.622 | 0.692 | 0.679 | 0.578 | 0.56 | 0.526 | 0.76 | 0.819 | 1.13 | 0.624
NCI-H838 | 0.872 | 0.728 | 0.879 | 1.25 | 0.533 | 1.13 | 1.13 | 1.15 | 1.12 | 1.07 | 0.219 | 0.227 | 0.243 | 0.216 | 0.219 | 0.641 | 0.834 | 0.841 | 1.05 | 0.752
SK-LU-1 | 1.55 | 1.03 | 1.48 | 0.829 | 0.976 | 0.954 | 0.571 | 0.794 | 0.953 | 0.789 | 0.387 | 0.314 | 0.363 | 0.376 | 0.354 | 0.871 | – | 0.998 | 1.42 | 1.23
LC-2-ad | 1.09 | 1.06 | 1.08 | 1.26 | 0.822 | 0.44 | 0.482 | 0.548 | 0.403 | 0.243 | 0.466 | 0.489 | 0.526 | 0.441 | 0.422 | 1 | 1.08 | 1.01 | 1.08 | 0.944
LOU-NH91 | 0.544 | 0.488 | 0.452 | 0.405 | 0.448 | 0.709 | 0.561 | 0.553 | 0.535 | 0.445 | 0.564 | 0.524 | 0.535 | 0.543 | 0.416 | 0.492 | 0.515 | 0.507 | 0.464 | 0.43
NCI-H2009 | 1.01 | 1.04 | 1.05 | 1.04 | 0.889 | 1.12 | 1.15 | 1.24 | 1.19 | 1.11 | 0.221 | 0.3 | 0.197 | 0.25 | 0.25 | 0.936 | 0.906 | 1.03 | 1.08 | 0.993
NCI-H647 | 1.08 | 0.948 | 0.871 | 0.724 | 0.119 | 0.943 | 1.09 | 1.16 | 1.17 | 1.06 | 0.402 | 0.385 | 0.384 | 0.358 | 0.381 | – | 1.04 | 0.869 | 1.05 | 0.989
NCI-H1666 | 0.967 | 0.824 | 0.805 | 0.867 | 0.721 | 0.83 | 0.861 | 0.951 | 0.88 | 0.46 | 0.669 | 0.605 | 0.62 | 0.621 | 0.63 | 1.12 | 0.867 | 0.673 | 0.899 | 0.822
A-427 | 0.936 | 1.01 | 0.925 | 0.985 | 0.878 | 0.931 | 0.952 | 0.992 | 0.935 | 0.874 | 0.508 | 0.497 | 0.485 | 0.531 | 0.503 | 0.934 | 1.07 | 0.968 | 1.02 | 0.974
NCI-H1437 | 0.547 | 0.483 | 0.398 | 0.693 | 0.284 | 1.03 | 1.06 | 1.16 | 1.08 | 1.08 | 0.295 | 0.32 | 0.346 | 0.302 | 0.341 | 0.475 | 0.569 | 0.848 | 0.652 | 0.429
HCC-366 | 1.04 | 0.988 | 1.07 | 1.07 | 0.996 | 1.09 | 1 | 1.06 | 1.06 | 1.05 | 0.423 | 0.41 | 0.453 | 0.394 | 0.351 | 0.85 | 1.1 | 1.07 | 1.3 | 0.927
HCC-78 | 0.462 | 0.383 | 0.588 | 0.342 | 0.175 | 0.732 | 0.649 | 0.828 | 0.887 | 0.573 | 0.443 | 0.485 | 0.479 | 0.518 | 0.446 | 0.547 | 0.575 | 0.49 | 0.465 | 0.589
HCC-44 | 0.798 | 1.05 | 0.829 | 0.999 | 0.88 | 1.05 | 1.02 | 0.93 | 0.976 | 0.947 | 0.91 | 0.914 | 0.967 | 0.979 | 0.961 | 0.87 | 0.878 | 0.877 | 0.961 | 0.882
NCI-H1355 | 1.31 | 1.17 | 1.24 | 1.18 | 1.03 | 0.931 | 0.809 | 0.577 | 1.01 | 1.03 | 0.437 | 0.399 | 0.408 | 0.387 | 0.373 | 1.1 | 1.1 | 1.22 | 1.27 | 1.1
NCI-H1993 | 1.19 | 1.12 | 0.782 | 0.995 | 0.611 | 0.932 | 0.942 | 0.853 | 0.838 | 0.789 | 0.661 | 0.628 | 0.602 | 0.581 | 0.392 | 1.02 | 1.07 | 0.886 | 1.1 | 1.06
NCI-H1734 | 1.12 | 0.919 | 0.874 | 0.956 | 0.478 | 0.854 | 0.766 | 0.801 | 0.804 | 0.818 | 0.35 | 0.348 | 0.314 | 0.373 | 0.295 | 0.789 | 0.895 | 0.912 | 1.07 | 0.831
COR-L 105 | 0.833 | 0.963 | 0.639 | 0.611 | 0.176 | 0.833 | 0.888 | 0.826 | 0.804 | 0.353 | 0.388 | 0.442 | 0.392 | 0.38 | 0.39 | 0.725 | 0.583 | 0.723 | 0.783 | 0.666
EMC-BAC-2 | 1.06 | 1.05 | 1.09 | 1.18 | 0.869 | 1.11 | 1.11 | 0.76 | 1.12 | 1.06 | 0.533 | 0.499 | 0.546 | 0.515 | 0.502 | 0.998 | 1.05 | 1.06 | 1.12 | 0.945
NCI-H1915 | 1.01 | 1.01 | 0.982 | 0.936 | 0.836 | 0.769 | 0.781 | 0.772 | 0.794 | 0.772 | 0.51 | 0.519 | 0.499 | 0.484 | 0.522 | 0.552 | 1.05 | 0.964 | 1.19 | 0.647
CAL-12T | 1.04 | 1.18 | 0.983 | 0.926 | 0.741 | 1.22 | 1.19 | 1.37 | 1.28 | 1.13 | 0.562 | 0.474 | 0.482 | 0.22 | 0.172 | 0.83 | – | – | 1.2 | 0.54
NCI-H2085 | 1.07 | 1.08 | 0.97 | 1.06 | 0.915 | 1.23 | 1.07 | 1.12 | 1.03 | 1 | 0.447 | 0.479 | 0.496 | 0.498 | 0.489 | 0.861 | 1.05 | 0.781 | 1.24 | 0.94
LCLC-97TM1 | 0.629 | 0.308 | 0.527 | 0.546 | 0.28 | 0.399 | 0.556 | 0.345 | 0.403 | 0.411 | 0.188 | 0.21 | 0.224 | 0.209 | 0.254 | – | 0.356 | 0.627 | 0.754 | 0.291
NCI-H2228 | 1.11 | 1.2 | 1.18 | 0.97 | 0.279 | 0.917 | 0.482 | – | 0.938 | 0.695 | 0.718 | 0.644 | 0.804 | 0.725 | 0.659 | 0.828 | 1.09 | 1.16 | 1.1 | 0.997
